Results from paper PMC7108740, “Exploring the molecular structures that confer ligand selectivity for galanin type II and III receptors” (PLoS ONE, 2020).
Where a chain is given by its changes, count along the chain named. Ends that are not written are not given here.

How the values were obtained:
[1] = biological target: T1, GALR3 (Homo sapiens, UniProt O60755); assay: SRE-luc luciferase assay, WT GALR3; assay type: cell-based; parameters: host or cells: HEK293 cells stably expressing Gqi; settings: SRE-luc in HEK293 Gqi cells, ligand 6 h, mean ± SE, at least three independent experiments, SEM
T1 sequence (O60755 1-368): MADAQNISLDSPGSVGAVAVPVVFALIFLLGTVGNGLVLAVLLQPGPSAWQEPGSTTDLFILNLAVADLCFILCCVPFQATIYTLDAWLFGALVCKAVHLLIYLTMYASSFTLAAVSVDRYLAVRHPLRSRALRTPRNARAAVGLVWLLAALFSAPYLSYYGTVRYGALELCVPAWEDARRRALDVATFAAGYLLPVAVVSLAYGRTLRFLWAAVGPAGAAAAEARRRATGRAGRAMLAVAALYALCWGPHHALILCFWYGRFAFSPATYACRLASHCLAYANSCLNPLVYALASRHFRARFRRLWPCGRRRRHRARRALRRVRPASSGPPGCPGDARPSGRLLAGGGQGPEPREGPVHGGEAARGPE
Description: The pcDNA3.1 vector was purchased from Invitrogen (San Diego, CA, USA). The serum response element (SRE)-luciferase (SRE-luc) vector containing a single copy of the SRE (CCATATTAGG) conjugated with luciferase was purchased from Stratagene (La Jolla, CA, USA). The cDNAs for human GALR1, GALR2, and GALR3 were obtained from BRN SCIENCE, Inc. The cDNAs were inserted into the EcoRⅠ and XhoⅠ sites of pcDNA3.1.
HEK293 cells stably expressing the Gqi construct, which allows induction of Gq-dependent signaling pathways upon activation of a Gi-coupled receptor [14, 30], were maintained in Dulbecco's Modified Eagle's Medium (DMEM) in the presence of 10% fetal bovine serum and 1% penicillin and streptomycin. For all transfections, 200 ng DNA (100 ng receptor and 100 ng SRE-luc) mixed with lipofectamine 2000 was applied to 60–80% confluent cells on a multi-well plate according to the manufacturer's instructions (Invitrogen, Carlsbad, CA).
For luciferase assays, HEK293 Gqi cells were seeded on 48-well plates at a density of 2.5 × 10^4 cells/well one day before transfection. A mixture including 100 ng SRE-luc reporter construct, 100 ng expression plasmid, and lipofectamine 2000 reagent in diluted Opti-MEM (Gibco) was incubated at room temperature for 20 min and then added into each well according to the manufacturer's instructions (Invitrogen, CA, USA). Before exposure to the ligands, the cells were maintained in serum-free DMEM for 16–18 h. Approximately 48 h after transfection, the cells were treated with ligand for 6 h. The cells were then lysed by the addition of 100 μl lysis buffer. The luciferase activity in 50 μl cell extract was determined using a luciferase assay system according to the standard protocol for the Synergy 2 Multi-Mode Microplate Reader (BioTek, Winooski, VT, USA).
Data analysis was performed by non-linear regression with a sigmoidal dose-response curve. The concentrations of agonists that induced half-maximal stimulation (EC50) were calculated using the GraphPad PRISM5 software (GraphPad software, Inc., San Diego, CA). All data are presented as the mean ± standard error (SE) of at least three independent experiments.

[2] = biological target: T2, GALR3 double mutant L^100F, Y^107H (Homo sapiens, UniProt O60755, L100F/Y107H); assay: SRE-luc luciferase assay, GALR3 L100F,Y107H; assay type: cell-based; settings: GALR3 L^100F, SRE-luc in HEK293 Gqi cells, ligand 6 h, mean ± S.E., SEM
T2 construct: expressed in transfected cells; host or cells: HEK293 cells stably expressing Gqi
T2 sequence (O60755 1-368 L100F/Y107H): T1 sequence (O60755 1-368) with L100F, Y107H
Description: For domain swapping between GALR2 and GALR3, individual cDNA fragments of interest were amplified by polymerase chain reaction (PCR) with Pfu polymerase (ELPIS Biotech, Daejeon, Korea) and two specific primers, one corresponding to the 5' or 3' end of the GALR2 or GALR3 cDNA and the other to the region of overlap between the two receptors. The two resulting fragments, one from GALR2 and the other from GALR3, were subjected to a second round of PCR to generate the chimeric cDNAs. To construct single, double-, triple-, pentuple-, hextuple-, and septuple-mutant receptors, amino acids of GALR3 were substituted for the amino acids at the corresponding positions in GALR2 using PCR-based site-directed mutagenesis. All of the chimeric constructs were cloned into the pcDNA3 expression vector at HindⅢ and XbaⅠ sites. The DNA sequences of the chimeras were verified by automatic sequencing. HEK293 cells stably expressing the Gqi construct, which allows induction of Gq-dependent signaling pathways upon activation of a Gi-coupled receptor [14, 30], were maintained in Dulbecco's Modified Eagle's Medium (DMEM) in the presence of 10% fetal bovine serum and 1% penicillin and streptomycin. For all transfections, 200 ng DNA (100 ng receptor and 100 ng SRE-luc) mixed with lipofectamine 2000 was applied to 60–80% confluent cells on a multi-well plate according to the manufacturer's instructions (Invitrogen, Carlsbad, CA). For luciferase assays, HEK293 Gqi cells were seeded on 48-well plates at a density of 2.5 × 10^4 cells/well one day before transfection. […] The luciferase activity in 50 μl cell extract was determined using a luciferase assay system according to the standard protocol for the Synergy 2 Multi-Mode Microplate Reader (BioTek, Winooski, VT, USA). […] The concentrations of agonists that induced half-maximal stimulation (EC50) were calculated using the GraphPad PRISM5 software (GraphPad software, Inc., San Diego, CA). […]

EC50 [1] [nM]	EC50 [2] [nM]	Compound
115	38.9 ± 7.28	CSCC[C@H](NC(=O)[C@H](C)NC(=O)[C@H](CCC(N)=O)NC(=O)[C@@H]1CCCN1C(=O)[C@@H](NC(=O)[C@H](Cc1c[nH]c2ccccc12)NC(=O)[C@@H](N)CC(N)=O)[C@@H](C)O)C(=O)N[C@@H](CC(C)C)C(=O)N[C@@H](Cc1ccc(O)cc1)C(=O)N[C@@H](CC(C)C)C(=O)N[C@@H](CCCCN)C(=O)NCC(=O)N[C@@H](C)C(=O)N[C@@H](CCC(N)=O)C(N)=O [SPX, reference compound]
398 ± 96.1	155 ± 40.1	NWTPNAMLYLKGAQ-NH2 [N^5-SPX]
–	69.2 ± 20.2	NWTPQAALYLKGAQ-NH2 [A^7-SPX]
333 ± 55.7	–	NWTPQAMLYLKGPQ-NH2 [P^13-SPX]
